Here are results for one molecule from ChEMBL document CHEMBL5154884, “Discovery of a Novel Src Homology-2 Domain Containing Protein Tyrosine Phosphatase-2 (SHP2) and Cyclin-Dependent Kinase 4 (CDK4) Dual Inhibitor for the Treatment of Triple-Negative Breast Cancer” (J Med Chem, 2022).

As a reminder, the IC50 is the point on the concentration scale where inhibition reaches its midpoint.

The structures appear in SMILES notation. The source made the active and inactive calls. The calls are words filed in the database; no cut-off is given here.

For data set [1], the target named is Tyrosine-protein phosphatase non-receptor type 6 (Homo sapiens, UniProt P29350). Put plainly: Inhibition of SHP1 (unknown origin) using DiFMUP as substrate preincubated for 20 mins followed by substrate addition and measured for 2 hrs by fluorescence based analysis.
Data set [2] has as its system EMT6. As to the kind of experiment: Antitumor activity against mouse EMT6 cells implanted in BALB/c mouse syngenic model assessed as tumor growth inhibition at 20 mg/kg, po bid and measured after 18 days relative to control. Type of data set: functional. The settings on record: EMT6, 432 h, time 18 day, read-out: TGI.
Data set [3] relates to MDA-MB-231. As to the kind of experiment: Induction of cell cycle arrest in human MDA-MB-231 cells assessed as accumulation of cells in S phase at 3 uM incubated for 48 hrs by RNase/propidium iodide staining based flow cytometry analysis (reference value: […]). Type of data set: functional. On the technique in general: Flow cytometry measures light scatter and fluorescence of single cells or particles in a stream.

Data set [4] is described as follows: Toxicity in BALB/c nude mouse implanted with mouse EMT6 cells assessed as body weight loss at 40 mg/kg, po qd and measured every 2 days for 18 days. Type of data set: organism-based. To be noted: in vivo, 432 h, time 18 day.
Data set [5] concerns MDA-MB-231. As to the kind of experiment: Antiproliferative activity against human MDA-MB-231 cells assessed as inhibition of cell growth incubated for 48 hrs by MTT assay. The settings on record: Homo sapiens, MDA-MB-231, 48 h. Type of data set: functional, cell-based. In general terms: Tetrazolium assays rely on reduction of a dye to a coloured formazan, in cell work by metabolically active cells.

In data set [6] the test system is MDA-MB-231. Put plainly: Induction of apoptosis in human MDA-MB-231 cells assessed as viable cells at 3 uM measured after 48 hrs by Annexin V-FITC/PI staining based flow cytometric analysis (reference value: 98.04%). To be noted: read-out: Activity. Type of data set: functional.
A short description of data set [7]: Terminal half life in ICR mouse at 10 mg/kg, po measured upto 24 hrs by LC-MS/MS analysis. Type of data set: ADME, organism-based. To be noted: in vivo, read-out: beta t1/2 (converted).
Data set [8] is described as follows: Inhibition of recombinant N-terminal GST/His6-fusion tagged human CDK1/Cyclin B expressed in Sf9 insect cells incubated for 20 mins followed by [33P]gamma-ATP addition and measured after 2 hrs by radiometric HotSpot Kinase assay.
For data set [9], the system named is EMT6. As to the kind of experiment: Antitumor activity against mouse EMT6 cells implanted in BALB/c mouse syngenic model assessed as downregulation of p-retinoblastoma level in tumor at 20 mg/kg, po bid measured after 18 days by immunohistochemical analysis. It counts as functional, organism-based. The settings on record: time 18.0 day.
Data set [10] addresses Cyclin-dependent kinase 4 (Homo sapiens) (UniProt P11802). Put plainly: Inhibition of CDK4 downstream signalling in human MDA-MB-231 cells assessed as decrease in p-retinoblastoma protein level measured after 72 hrs by Western blot analysis. Type of data set: cell-based. The settings on record: dose 1.25-20 µM, DDE = dose-dependent effect. In general terms: In western blotting, separated proteins are transferred to a membrane and probed.

Data set [11] concerns EMT6. As to the kind of experiment: Antitumor activity against mouse EMT6 cells implanted in BALB/c mouse syngenic model assessed as downregulation of pERK level in tumor at 20 to 40 mg/kg, po qd measured after 18 days by immunohistochemical analysis. It counts as functional, organism-based. The settings on record: dose 20-40 mg/kg, time 18.0 day.
Data set [12] deals with EMT6. As to the kind of experiment: Antitumor activity against mouse EMT6 cells implanted in BALB/c mouse syngenic model assessed as tumor growth inhibition at 40 mg/kg, po qd and measured after 18 days relative to control. To be noted: EMT6, 432 h, time 18 day, read-out: TGI. Type of data set: functional.
Data set [13] can be described thus: Toxicity in BALB/c nude mouse implanted with mouse EMT6 cells assessed as mortality at 40 mg/kg, po qd and measured every 2 days for 18 days. It counts as organism-based. The settings on record: in vivo, 432 h, time 18 day.
For data set [14], the system named is MDA-MB-231. As to the kind of experiment: Induction of apoptosis in human MDA-MB-231 cells assessed as viable cells at 1 uM measured after 48 hrs by Annexin V-FITC/PI staining based flow cytometric analysis (reference value: 98.04%). Type of data set: functional. To be noted: read-out: Activity.
Data set [15] deals with MDA-MB-231. As to the kind of experiment: Induction of apoptosis in human MDA-MB-231 cells assessed as necrotic cells at 3 uM measured after 48 hrs by Annexin V-FITC/PI staining based flow cytometric analysis (reference value: 0.58%). Type of data set: functional.
The subject of data set [16] is EMT6. Put plainly: Antiproliferative activity against mouse EMT6 cells assessed as inhibition of cell growth incubated for 48 hrs by MTT assay. It counts as functional, cell-based. The settings on record: Mus musculus, EMT6, 48 h.
Data set [17] concerns the target Cyclin-dependent kinase 5/CDK5 activator 1 (Homo sapiens, UniProt Q00535). Put plainly: Inhibition of recombinant full length N-terminal GST/His6-fusion tagged human CDK5/P25 expressed in Sf9 insect cells incubated for 20 mins followed by [33P]gamma-ATP addition and measured after 2 hrs by radiometric HotSpot Kinase assay.
Another data set deals with CDK4/Cyclin D3 (Homo sapiens, UniProt P11802). As to the kind of experiment: Inhibition of recombinant N-terminal GST/His6-fusion tagged human CDK4/Cyclin D3 expressed in Sf9 insect cells using 5-FAM-IPTSPITTTYFFFKKK as substrate preincubated for 10 mins followed by substrate addition and incubated for 3 hrs in presence of ATP by caliper mobility shift analysis.
The nature of data set [18]: Inhibition of recombinant full length N-terminal GST/His6-fusion tagged human CDK9/Cyclin T1 expressed in Sf9 insect cells incubated for 20 mins followed by [33P]gamma-ATP addition and measured after 2 hrs by radiometric HotSpot Kinase assay.
The target of another data set is CDK12/Cyclin K (Homo sapiens, UniProt Q9NYV4). As to the kind of experiment: Inhibition of recombinant N-terminal GST/His6-fusion tagged human CDK12/Cyclin K expressed in Sf9 insect cells incubated for 20 mins followed by [33P]gamma-ATP addition and measured after 2 hrs by radiometric HotSpot Kinase assay.
Data set [19] concerns the target T1, Tyrosine-protein phosphatase non-receptor type 11 (Homo sapiens, UniProt Q06124).
T1 sequence (Q06124 whole entry): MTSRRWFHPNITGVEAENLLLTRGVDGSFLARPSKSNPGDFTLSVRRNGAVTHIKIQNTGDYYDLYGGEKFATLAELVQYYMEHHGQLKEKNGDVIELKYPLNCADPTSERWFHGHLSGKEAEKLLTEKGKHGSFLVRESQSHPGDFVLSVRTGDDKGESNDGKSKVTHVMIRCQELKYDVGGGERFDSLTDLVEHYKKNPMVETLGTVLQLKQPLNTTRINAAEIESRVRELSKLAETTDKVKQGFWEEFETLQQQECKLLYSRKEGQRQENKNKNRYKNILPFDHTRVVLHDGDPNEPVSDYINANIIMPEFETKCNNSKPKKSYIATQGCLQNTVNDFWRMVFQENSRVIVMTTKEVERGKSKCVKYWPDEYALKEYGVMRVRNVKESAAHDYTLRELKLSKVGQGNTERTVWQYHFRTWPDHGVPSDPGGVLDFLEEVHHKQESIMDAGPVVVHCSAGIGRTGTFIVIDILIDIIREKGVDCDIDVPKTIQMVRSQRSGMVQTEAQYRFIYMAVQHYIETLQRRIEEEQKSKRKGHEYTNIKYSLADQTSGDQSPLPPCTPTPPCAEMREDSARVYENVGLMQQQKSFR
As to the kind of experiment: Inhibition of SHP2 (unknown origin) using DiFMUP as substrate incubated for 60 mins followed by substrate addition for 30 mins by microplate reader method.

The target in data set [20] is Cyclin-dependent kinase 13/Cyclin-K (Homo sapiens, UniProt Q14004). Put plainly: Inhibition of recombinant N-terminal GST/His6-fusion tagged human CDK13/Cyclin K expressed in Sf9 insect cells incubated for 20 mins followed by [33P]gamma-ATP addition and measured after 2 hrs by radiometric HotSpot Kinase assay.
Data set [21] deals with MDA-MB-231. Put plainly: Induction of apoptosis in human MDA-MB-231 cells assessed as late apoptotic cells at 3 uM measured after 48 hrs by Annexin V-FITC/PI staining based flow cytometric analysis (reference value: 1.06%). It counts as functional.

Cyclin-dependent kinase 13/Cyclin-K, sequence (Q14004 whole entry, the tested form may be a part): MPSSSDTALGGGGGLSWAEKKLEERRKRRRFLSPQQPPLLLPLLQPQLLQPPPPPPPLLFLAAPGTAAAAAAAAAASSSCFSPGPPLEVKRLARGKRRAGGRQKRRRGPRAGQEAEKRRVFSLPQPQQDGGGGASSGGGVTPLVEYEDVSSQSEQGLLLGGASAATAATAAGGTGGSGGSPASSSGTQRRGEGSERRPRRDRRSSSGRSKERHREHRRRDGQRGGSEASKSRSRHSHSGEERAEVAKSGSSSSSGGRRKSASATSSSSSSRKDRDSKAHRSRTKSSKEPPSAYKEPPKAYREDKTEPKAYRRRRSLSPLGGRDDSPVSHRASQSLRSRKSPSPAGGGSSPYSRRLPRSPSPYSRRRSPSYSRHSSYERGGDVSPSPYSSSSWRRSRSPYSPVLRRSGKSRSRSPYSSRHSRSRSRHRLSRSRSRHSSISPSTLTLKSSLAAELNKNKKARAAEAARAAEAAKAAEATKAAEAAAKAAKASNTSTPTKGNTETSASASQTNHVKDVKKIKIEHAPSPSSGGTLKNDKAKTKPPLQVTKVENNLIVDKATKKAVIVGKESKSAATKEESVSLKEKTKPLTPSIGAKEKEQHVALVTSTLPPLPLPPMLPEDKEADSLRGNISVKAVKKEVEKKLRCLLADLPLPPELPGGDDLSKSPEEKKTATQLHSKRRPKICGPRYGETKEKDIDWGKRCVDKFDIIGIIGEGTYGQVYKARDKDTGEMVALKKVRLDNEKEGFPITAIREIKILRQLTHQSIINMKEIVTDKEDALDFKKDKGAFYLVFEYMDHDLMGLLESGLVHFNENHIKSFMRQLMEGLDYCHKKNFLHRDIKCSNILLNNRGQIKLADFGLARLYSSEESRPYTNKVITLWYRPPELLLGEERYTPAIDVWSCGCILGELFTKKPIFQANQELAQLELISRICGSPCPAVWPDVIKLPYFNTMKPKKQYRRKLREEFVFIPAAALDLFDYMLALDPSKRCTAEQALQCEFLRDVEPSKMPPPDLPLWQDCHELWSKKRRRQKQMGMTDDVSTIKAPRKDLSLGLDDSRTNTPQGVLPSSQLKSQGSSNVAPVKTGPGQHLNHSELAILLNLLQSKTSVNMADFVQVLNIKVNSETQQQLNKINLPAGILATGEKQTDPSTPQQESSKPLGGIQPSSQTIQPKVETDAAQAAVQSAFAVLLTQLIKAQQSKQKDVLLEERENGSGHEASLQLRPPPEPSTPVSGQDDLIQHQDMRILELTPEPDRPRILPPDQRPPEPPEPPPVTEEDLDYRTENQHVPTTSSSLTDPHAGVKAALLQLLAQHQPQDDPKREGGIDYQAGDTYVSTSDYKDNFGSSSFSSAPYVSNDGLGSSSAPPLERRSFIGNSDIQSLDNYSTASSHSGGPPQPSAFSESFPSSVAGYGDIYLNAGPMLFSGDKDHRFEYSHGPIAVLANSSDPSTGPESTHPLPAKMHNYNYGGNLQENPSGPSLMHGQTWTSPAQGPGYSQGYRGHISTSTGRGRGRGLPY
Cyclin-dependent kinase 13/Cyclin-K, sequence (O75909 whole entry, further chain, the tested form may be a part): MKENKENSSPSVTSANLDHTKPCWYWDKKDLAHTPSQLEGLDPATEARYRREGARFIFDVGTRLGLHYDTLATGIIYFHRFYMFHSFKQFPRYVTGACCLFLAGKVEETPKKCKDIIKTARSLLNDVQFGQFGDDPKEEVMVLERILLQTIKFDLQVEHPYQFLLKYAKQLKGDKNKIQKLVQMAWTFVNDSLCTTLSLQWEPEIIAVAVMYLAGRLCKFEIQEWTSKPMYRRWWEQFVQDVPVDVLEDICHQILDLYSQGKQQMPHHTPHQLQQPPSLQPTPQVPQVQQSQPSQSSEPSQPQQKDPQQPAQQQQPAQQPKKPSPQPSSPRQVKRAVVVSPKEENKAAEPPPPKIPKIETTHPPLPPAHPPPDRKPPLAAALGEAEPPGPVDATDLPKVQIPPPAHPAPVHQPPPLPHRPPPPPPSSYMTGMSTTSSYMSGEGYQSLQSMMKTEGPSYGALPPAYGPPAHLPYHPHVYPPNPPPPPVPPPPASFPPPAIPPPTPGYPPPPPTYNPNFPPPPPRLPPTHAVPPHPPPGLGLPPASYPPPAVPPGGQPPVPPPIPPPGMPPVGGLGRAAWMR
Tyrosine-protein phosphatase non-receptor type 6, sequence (P29350 whole entry): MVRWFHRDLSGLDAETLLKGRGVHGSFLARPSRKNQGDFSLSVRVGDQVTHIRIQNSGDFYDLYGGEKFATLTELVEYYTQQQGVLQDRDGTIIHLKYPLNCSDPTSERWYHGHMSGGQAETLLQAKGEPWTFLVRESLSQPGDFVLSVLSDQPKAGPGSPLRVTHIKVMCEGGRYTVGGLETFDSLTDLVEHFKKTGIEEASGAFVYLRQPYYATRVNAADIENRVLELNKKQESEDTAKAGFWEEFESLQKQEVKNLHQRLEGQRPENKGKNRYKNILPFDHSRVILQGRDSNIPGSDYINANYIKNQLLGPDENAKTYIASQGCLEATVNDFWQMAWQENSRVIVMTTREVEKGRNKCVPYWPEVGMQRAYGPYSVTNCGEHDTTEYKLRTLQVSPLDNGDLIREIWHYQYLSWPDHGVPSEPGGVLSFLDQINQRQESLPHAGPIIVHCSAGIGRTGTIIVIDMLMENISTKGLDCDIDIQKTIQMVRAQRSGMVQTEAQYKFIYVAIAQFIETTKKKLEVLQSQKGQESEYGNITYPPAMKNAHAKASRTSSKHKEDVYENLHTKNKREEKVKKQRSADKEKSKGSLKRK
CDK12/Cyclin K, sequence (O75909 whole entry, the tested form may be a part): as the sequence (O75909 whole entry, further chain, the tested form may be a part) above
CDK12/Cyclin K, sequence (Q9NYV4 whole entry, the tested form may be a part): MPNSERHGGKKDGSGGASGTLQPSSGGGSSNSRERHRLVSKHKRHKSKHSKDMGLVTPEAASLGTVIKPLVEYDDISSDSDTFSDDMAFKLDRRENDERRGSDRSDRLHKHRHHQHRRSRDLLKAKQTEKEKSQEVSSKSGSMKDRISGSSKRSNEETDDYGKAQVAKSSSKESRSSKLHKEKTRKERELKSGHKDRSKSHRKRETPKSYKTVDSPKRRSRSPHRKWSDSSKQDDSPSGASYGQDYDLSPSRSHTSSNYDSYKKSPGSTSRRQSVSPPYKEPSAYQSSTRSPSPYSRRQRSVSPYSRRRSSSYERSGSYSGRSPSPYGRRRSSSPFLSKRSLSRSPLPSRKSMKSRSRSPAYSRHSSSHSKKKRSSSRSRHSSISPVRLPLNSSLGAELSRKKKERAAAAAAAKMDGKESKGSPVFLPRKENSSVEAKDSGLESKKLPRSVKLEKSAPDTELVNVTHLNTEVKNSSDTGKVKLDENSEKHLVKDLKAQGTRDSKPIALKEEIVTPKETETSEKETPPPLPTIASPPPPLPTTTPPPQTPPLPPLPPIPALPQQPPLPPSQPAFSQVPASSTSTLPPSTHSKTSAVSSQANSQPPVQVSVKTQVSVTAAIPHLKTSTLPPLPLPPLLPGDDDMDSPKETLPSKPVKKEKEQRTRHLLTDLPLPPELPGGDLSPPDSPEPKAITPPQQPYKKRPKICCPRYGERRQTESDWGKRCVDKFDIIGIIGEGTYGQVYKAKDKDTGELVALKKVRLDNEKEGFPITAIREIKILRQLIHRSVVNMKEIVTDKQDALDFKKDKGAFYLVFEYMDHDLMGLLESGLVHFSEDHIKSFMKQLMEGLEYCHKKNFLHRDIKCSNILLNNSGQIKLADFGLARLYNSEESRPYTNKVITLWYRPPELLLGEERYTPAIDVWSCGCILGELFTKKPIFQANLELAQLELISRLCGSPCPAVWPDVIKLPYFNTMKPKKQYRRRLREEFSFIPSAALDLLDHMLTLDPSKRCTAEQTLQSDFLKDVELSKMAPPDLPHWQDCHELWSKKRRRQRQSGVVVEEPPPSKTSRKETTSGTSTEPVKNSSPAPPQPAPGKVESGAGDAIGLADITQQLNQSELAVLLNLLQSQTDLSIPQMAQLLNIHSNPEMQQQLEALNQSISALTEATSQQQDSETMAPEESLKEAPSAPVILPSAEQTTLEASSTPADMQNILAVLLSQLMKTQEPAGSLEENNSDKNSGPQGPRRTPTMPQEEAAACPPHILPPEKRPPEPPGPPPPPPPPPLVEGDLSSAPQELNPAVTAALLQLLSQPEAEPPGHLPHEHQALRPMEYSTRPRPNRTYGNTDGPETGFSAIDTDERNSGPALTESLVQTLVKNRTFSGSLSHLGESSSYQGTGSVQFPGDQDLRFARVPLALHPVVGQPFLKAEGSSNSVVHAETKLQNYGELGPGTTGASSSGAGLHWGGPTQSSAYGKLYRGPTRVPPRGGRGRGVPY
CDK4/Cyclin D3, sequence (P11802 whole entry, the tested form may be a part): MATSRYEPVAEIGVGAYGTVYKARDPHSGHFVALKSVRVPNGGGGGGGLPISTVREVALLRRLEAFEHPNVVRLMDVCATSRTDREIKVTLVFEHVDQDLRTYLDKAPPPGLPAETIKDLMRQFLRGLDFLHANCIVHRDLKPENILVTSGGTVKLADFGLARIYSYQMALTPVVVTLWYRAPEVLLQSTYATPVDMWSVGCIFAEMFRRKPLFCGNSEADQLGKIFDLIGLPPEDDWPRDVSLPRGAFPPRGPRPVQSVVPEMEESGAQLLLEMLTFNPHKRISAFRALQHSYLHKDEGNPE
CDK4/Cyclin D3, sequence (P30281 whole entry, further chain, the tested form may be a part): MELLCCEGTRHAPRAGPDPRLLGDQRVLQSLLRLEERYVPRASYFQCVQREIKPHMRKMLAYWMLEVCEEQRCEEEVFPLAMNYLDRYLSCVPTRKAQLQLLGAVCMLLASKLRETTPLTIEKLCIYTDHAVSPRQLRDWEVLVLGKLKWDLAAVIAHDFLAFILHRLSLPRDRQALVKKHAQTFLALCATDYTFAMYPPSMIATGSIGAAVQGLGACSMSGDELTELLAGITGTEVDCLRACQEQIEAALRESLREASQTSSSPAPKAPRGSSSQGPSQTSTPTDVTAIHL
Cyclin-dependent kinase 4 (Homo sapiens), sequence (P11802 whole entry): as the sequence (P11802 whole entry, the tested form may be a part) above

Take `Cc1nc2c(F)cc(-c3nc(Nc4nccc(Sc5cnc(N6CCC7(CC6)CO[C@@H](C)[C@H]7N)cn5)c4Cl)ncc3F)cc2n1C(C)C`: the IC50 in data set [1] was more than 20000 nM; in the data set with MDA-MB-231 [5] it was 5570 nM; in [8], 210 nM; in the data set on EMT6 [16] it was 640 nM; in data set [17], 540 nM; at CDK4/Cyclin D3, 18.2 nM. Also, the IC50 in [18] is 26.4 nM; on CDK12/Cyclin K it was 697 nM; in data set [19] it was 4.3 nM; in data set [20] it was more than 1000 nM. The inhibition in vivo at 20 mg/kg in the data set with EMT6 [2] was determined as 89%. Moreover, the Activity with MDA-MB-231 [3] is given as 39.6%; in data set [4], “Non-Toxic”; in data set [13], “Non-Toxic”; with MDA-MB-231 [15], 1.25%; in the data set on MDA-MB-231 [21] it was 7.25%. For the same molecule, the viability at 3 µM in the data set with MDA-MB-231 [6] was 82%. Moreover, the half-life in data set [7] was 2.94 h. Besides, the outcome with EMT6 [9] and in the data set on EMT6 [11] was Active. In addition, in [10], the inhibition entry was “Dde”. Also, the inhibition in vivo at 40 mg/kg with EMT6 [12] amounted to 80%. For the same molecule, the viability at 1 µM with MDA-MB-231 [14] was determined as 86.3%.
